Test results published in PMC7066135, “The lipoprotein Pal stabilises the bacterial outer membrane during constriction by a mobilisation-and-capture mechanism” (Nature Communications, 2020).

Test system: Pal-mCherry accumulation at the septum
Experiment: TIRFM of Pal-mCherry accumulation at the division septum
Assay type: cell-based
Settings: dividing E. coli cells, mutant TolB; average of 30 cells
Procedure: Overnight supplemented M9-glucose (2 mM MgSO4, 0.1 mM CaCl2, 0.4% (w/v) D-glucose) cultures were diluted in fresh medium with appropriate antibiotics and IPTG for strains expressing TolA from plasmids. Cultures were grown at 37 °C to OD600 0.3. Cells were centrifuged at 7000 × g for 1 min, resuspended in 1 ml of fresh media and treated with CCCP (0.1 mM, RT for 5 min, Sigma #C2759) for PMF decoupling, sodium azide (50 µg ml^−1, RT for 30 min, Sigma #S2002) for ATPase inhibition or chloramphenicol (30 µg ml^−1, 37 °C for 30 min, Sigma #C0378) for translation inhibition. […]
Live cells were imaged using an Oxford NanoImager (ONI) superresolution microscope equipped with four laser lines (405/473/561/640 nm) and ×100 oil immersion objective (Olympus 1.49 NA). Pal-mCherry fluorescence images were acquired by scanning a 50 µm × 80 µm area with a 561 nm laser (0.2 mW) set at 49° incidence angle (100 ms exposition), resulting in a 512 × 1024 pixel image. […] Images were recorded by NimOS software associated with the ONI instrument. If not noted otherwise, each image was acquired as a 100- or 200-frame stack for brightfield and fluorescence channels, respectively. […]
All images were analysed using ImageJ software. Fluorescence distribution along x-axis of cells was determined by the plot profile function with a line width of 4 points for TIRFM images and 40 or 80 for FRAP images. […]

## TolB^AAA: Alanine-substitution of three key hydrophobic residues in E. coli TolB (Ile25Ala, Val26Ala, Ile27Ala)
  Pal-mCherry accumulation at division sites: abolishes Pal-mCherry accumulation at the septum
